Measured values taken from PubChem BioAssay (NCI).
Where “and” joins values, the source holds several entries; their conditions need not be identical. Identical values can stand only once.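 A five-concentration, 48-hour dose response in 96-well plates underlies each endpoint, interpolated linearly between surrounding concentrations. GI50 is the concentration that inhibits growth by half. TGI denotes the concentration required for complete inhibition of growth.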

Legend:
Assay in all cases: growth of human tumour cells (NCI), 48 h
CCRF-CEM leukemia = test system: CCRF-CEM leukemia
DLD-1 colon = test system: DLD-1 colon
KM12 colon = test system: KM12 colon
M19-MEL melanoma = test system: M19-MEL melanoma
MOLT-4 leukemia = test system: MOLT-4 leukemia
OVCAR-5 ovarian = test system: OVCAR-5 ovarian
U251 CNS = test system: U251 CNS
UO-31 renal = test system: UO-31 renal
NCI/ADR-RES ovarian = test system: NCI/ADR-RES ovarian
T-47D breast = test system: T-47D breast

Row | SMILES | TGI (CCRF-CEM leukemia) | TGI (DLD-1 colon) | TGI (KM12 colon) | TGI (M19-MEL melanoma) | TGI (MOLT-4 leukemia) | TGI (OVCAR-5 ovarian) | TGI (U251 CNS) | TGI (UO-31 renal) | GI50 (DLD-1 colon) | GI50 (KM12 colon) | GI50 (M19-MEL melanoma) | GI50 (OVCAR-5 ovarian) | GI50 (U251 CNS) | GI50 (UO-31 renal) | GI50 (CCRF-CEM leukemia) | GI50 (MOLT-4 leukemia) | GI50 (NCI/ADR-RES ovarian) | TGI (NCI/ADR-RES ovarian) | GI50 (T-47D breast) | TGI (T-47D breast)
1 | CCC1=C(C)/C(=C/c2[nH]c(C(Br)Br)c(CC)c2C)N=C1C(Br)Br | 55.3 µM | > 100 µM | 80.4 µM | 79.1 µM | 27.4 µM | > 100 µM | 86.4 µM | > 100 µM | – | – | – | – | – | – | – | – | – | – | – | –
2 | CNC(=S)N/N=C1\CC(c2ccccc2)Oc2ccccc21 (stereo unspecified) | > 100 µM | > 100 µM | > 100 µM | > 100 µM | > 100 µM | > 100 µM | > 100 µM | > 100 µM | – | – | – | – | – | – | – | – | – | – | – | –
3 | [N-]=[N+]=Nc1ccc(CCN2CCN(c3cccc(C(F)(F)F)c3)CC2)cc1I | > 100 µM | – | > 100 µM | > 100 µM | > 100 µM | > 100 µM | > 100 µM | > 100 µM | – | – | – | – | – | – | – | – | – | – | – | –
4 | N#CNC(N)=NCCO | – | > 100 µM | > 100 µM | > 100 µM | > 100 µM | > 100 µM | > 100 µM | > 100 µM | – | – | – | – | – | – | – | – | – | – | – | –
5 | COc1cc(=O)oc(/C=C/C=O)c1C | 88.3 µM | 34.3 µM | 38.2 µM | 35.7 µM | 77.3 µM | > 100 µM | 28.6 µM | 39.4 µM | – | – | – | – | – | – | – | – | – | – | – | –
6 | [C-]#[O+].[Cl][Sn]([Cl])[Cl].[Cl][Sn]([Cl])[Cl].[Pt].c1ccc([PH+](c2ccccc2)c2ccccc2)cc1.c1ccc([PH+](c2ccccc2)c2ccccc2)cc1 | – | > 100 µM | > 100 µM | > 100 µM | – | > 100 µM | 42.5 µM | > 100 µM | 45.5 µM | 42.3 µM | 41 µM | 88 µM | 15.3 µM | > 100 µM | – | – | – | – | – | –
7 | COc1ccc(CN2C(=O)C(Cc3cc(OC)c(OC)c(C)c3OC)NC(=O)/C2=C/c2cc(OC)c(OC)c(C)c2OC)cc1 (stereo unspecified) | 71.1 µM | > 100 µM | > 100 µM | 37.7 µM | 60.6 µM | > 100 µM | > 100 µM | 74 µM | – | – | – | – | – | – | – | – | – | – | – | –
8 | CC1=CC[C@@H]2C(C)(C)C(=O)CC[C@@]2(C)[C@@H]1COc1ccc2ccc(=O)oc2c1 | 70.9 µM | – | 23.7 µM | – | 17.9 µM | > 100 µM | > 100 µM | 34.9 µM | – | 9.15 µM | – | 25.9 µM | 27.6 µM | 8.15 µM | 5.48 µM | 3.79 µM | 4.06 µM | 19.9 µM | 2.69 µM | 11.1 µM
9 | O=C(Cc1nc2ccccc2c(=O)n1-c1c(Cl)cccc1Cl)c1ccncc1 | 45.2 µM | > 100 µM | 32.3 µM | 39.6 µM | 42.2 µM | – | > 100 µM | 55 µM | – | – | – | – | – | – | – | – | – | – | – | –
10 | C=CCn1c(=O)c2cnc(Nc3ccc(N4CCN(C)CC4)cc3)nc2n1-c1ccc2c(n1)[C@@](O)(CC)CC2 | 1.81 µM | – | 3.82 µM | – | 1.37 µM | 19.5 µM | 35.7 µM | 6.96 µM | – | 0.391 µM | – | 1.2 µM | 1.11 µM | 0.36 µM | 0.2 µM | 0.296 µM | 5.69 µM | 33.5 µM | 2.17 µM | > 80.7 µM
11 | CC1(C)OC(=O)[C@@](C)([C@H](O)c2ccccc2)O1 | > 100 µM | > 100 µM | > 100 µM | > 100 µM | > 100 µM | – | > 100 µM | > 100 µM | – | – | – | – | – | – | – | – | – | – | – | –
12 | COC(=O)CCC(C)[C@H]1CCC2C3C(C[C@H](OC(C)=O)[C@@]21C)[C@@]1(C)CCC2(C[C@H]1C[C@H]3OC(C)=O)OOC1(CCC(C)CC1)OO2 (stereo partly specified) | > 100 µM | – | > 100 µM | – | > 100 µM | > 100 µM | > 100 µM | 17.8 µM and 36.4 µM | – | 4.03 µM and 38.7 µM | – | – | – | 4.13 µM and 11.2 µM | – | 2.86 µM and 25.5 µM | – | > 100 µM | – | > 100 µM
13 | C[C@@H](C1CCC2C3C(=CC(=O)[C@@]21C)[C@H](C)[C@]1(CCC(=O)O1)C1OC31)[C@H]1C[C@]2(C)O[C@@](C)(O1)OC2(C)C (stereo partly specified) | > 100 µM | > 100 µM | – | > 100 µM | > 100 µM | – | > 100 µM | > 100 µM | – | – | – | – | – | – | – | – | – | – | – | –
14 | O=C(COc1ccc(/C=C2\Oc3ccccc3C2=O)cc1)Nc1nccs1 | 3.27 µM | – | > 100 µM | – | 19.1 µM | > 100 µM | > 100 µM | > 100 µM | – | 8.08 µM | – | > 100 µM | 40.6 µM | > 100 µM | 1.52 µM | 3.31 µM | 64.9 µM | > 100 µM | 75.4 µM | > 100 µM
15 | CC(C)(C)N/N=C(\Cc1occc(=O)c1O)C(=O)Nc1ccc([N+](=O)[O-])cc1[N+](=O)[O-] | > 100 µM | – | > 100 µM | > 100 µM | > 100 µM | > 100 µM | > 100 µM | > 100 µM | – | – | – | – | – | – | – | – | – | – | – | –
16 | CC(C)N(C(=O)C12C3C4C5C3C1(C(=O)N(C(C)C)C(C)C)C5(C#N)C42)C(C)C (stereo unspecified) | 51.6 µM | 66.5 µM | > 100 µM | > 100 µM | > 100 µM | > 100 µM | > 100 µM | > 100 µM | – | – | – | – | – | – | – | – | – | – | – | –
17 | O=C(Cn1c(=O)c(-c2ccccc2)nc2ccccc21)c1ccc(Cl)cc1 | > 100 µM | – | > 100 µM | – | > 100 µM | > 100 µM | > 100 µM | > 100 µM | – | 98.1 µM | – | > 100 µM | 37.6 µM | 80.8 µM | > 100 µM | > 100 µM | 48 µM | > 100 µM | > 100 µM | > 100 µM
18 | Cc1cc(Cc2cc(C)c(O)c(C)c2)cc(C)c1O | > 100 µM | – | 15.7 µM | – | 27.8 µM | 61.9 µM | 19.6 µM | 96.6 µM | – | 3.93 µM | – | 17.8 µM | 3.68 µM | 7.65 µM | 4.14 µM | 3.82 µM | 3.95 µM | 48.5 µM | 4.64 µM | 72 µM
19 | Cc1c(C(=O)CC(=O)C(=O)Nc2c(C(C)C)cccc2C(C)C)[n+](=O)c2ccccc2n1[O-] | 7.84 µM | – | 15.7 µM | 4.87 µM | 8.2 µM | 35.6 µM | 10.7 µM | 31.4 µM | – | – | – | – | – | – | – | – | – | – | – | –
